According to ChEMBL document CHEMBL5653615 (J Biol Chem, 2013):

How the values were obtained:
[1] = target: Calcium/calmodulin-dependent protein kinase type 1 (Homo sapiens) (UniProt Q14012); test: Inhibition of human CAMK1a at 1.82 nM by HotSpot assay relative to control
[2] = target: Serine/threonine-protein kinase Nek4 (Homo sapiens) (UniProt P51957); test: Inhibition of human NEK4 at 1.82 nM by HotSpot assay relative to control
[3] = target: Tyrosine-protein kinase Lyn (Homo sapiens) (UniProt P07948); test: Inhibition of human LYN B at 1.82 nM by HotSpot assay relative to control
Chain of Tyrosine-protein kinase Lyn (Homo sapiens) (P07948 2-512 limits assumed): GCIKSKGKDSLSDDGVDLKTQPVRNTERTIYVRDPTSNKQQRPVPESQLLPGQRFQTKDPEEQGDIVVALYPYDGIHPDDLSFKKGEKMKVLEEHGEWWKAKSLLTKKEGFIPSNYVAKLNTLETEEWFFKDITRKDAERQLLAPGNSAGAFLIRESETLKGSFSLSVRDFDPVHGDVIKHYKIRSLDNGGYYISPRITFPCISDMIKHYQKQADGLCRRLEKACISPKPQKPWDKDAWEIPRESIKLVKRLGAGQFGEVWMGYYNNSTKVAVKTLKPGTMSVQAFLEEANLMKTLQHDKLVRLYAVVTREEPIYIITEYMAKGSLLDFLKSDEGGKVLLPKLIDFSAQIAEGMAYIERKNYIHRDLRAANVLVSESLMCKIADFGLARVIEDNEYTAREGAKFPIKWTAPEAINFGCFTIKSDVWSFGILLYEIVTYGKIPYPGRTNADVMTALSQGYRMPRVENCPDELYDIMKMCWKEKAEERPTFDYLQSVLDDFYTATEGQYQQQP

[4] = target: Mitogen-activated protein kinase 11 (Homo sapiens) (UniProt Q15759); test: Inhibition of human MAPK11 at 1.82 nM by HotSpot assay relative to control
Chain of Mitogen-activated protein kinase 11 (Homo sapiens) (Q15759 whole entry): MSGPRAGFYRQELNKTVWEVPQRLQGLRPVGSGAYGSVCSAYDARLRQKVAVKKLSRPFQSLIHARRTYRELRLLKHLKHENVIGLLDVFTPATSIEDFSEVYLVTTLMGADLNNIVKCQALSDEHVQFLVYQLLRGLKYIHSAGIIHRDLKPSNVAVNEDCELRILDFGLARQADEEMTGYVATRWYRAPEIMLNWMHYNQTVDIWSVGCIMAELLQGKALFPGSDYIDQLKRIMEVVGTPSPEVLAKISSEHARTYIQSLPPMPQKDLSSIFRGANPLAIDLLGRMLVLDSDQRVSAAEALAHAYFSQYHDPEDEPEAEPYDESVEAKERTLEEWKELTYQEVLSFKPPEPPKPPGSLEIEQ

[5] = target: T1, Serine/threonine-protein kinase Sgk2 (Homo sapiens) (UniProt Q9HBY8); test: Inhibition of human SGK2 at 1.82 nM by HotSpot assay relative to control
T1 sequence (whole entry): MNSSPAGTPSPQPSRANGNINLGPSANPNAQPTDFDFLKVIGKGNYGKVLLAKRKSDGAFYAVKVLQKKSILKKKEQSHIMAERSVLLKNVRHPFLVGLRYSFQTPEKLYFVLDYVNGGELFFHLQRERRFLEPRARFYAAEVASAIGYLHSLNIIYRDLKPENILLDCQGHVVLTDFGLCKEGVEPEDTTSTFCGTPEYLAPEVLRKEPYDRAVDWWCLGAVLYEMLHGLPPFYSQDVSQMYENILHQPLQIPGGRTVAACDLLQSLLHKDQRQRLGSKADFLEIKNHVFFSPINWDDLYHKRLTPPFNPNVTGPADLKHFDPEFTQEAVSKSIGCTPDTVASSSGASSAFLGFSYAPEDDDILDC

[6] = target: T2, Tyrosine-protein kinase Tec (Homo sapiens) (UniProt P42680); test: Inhibition of human TEC at 1.82 nM by HotSpot assay relative to control
T2 sequence (whole entry): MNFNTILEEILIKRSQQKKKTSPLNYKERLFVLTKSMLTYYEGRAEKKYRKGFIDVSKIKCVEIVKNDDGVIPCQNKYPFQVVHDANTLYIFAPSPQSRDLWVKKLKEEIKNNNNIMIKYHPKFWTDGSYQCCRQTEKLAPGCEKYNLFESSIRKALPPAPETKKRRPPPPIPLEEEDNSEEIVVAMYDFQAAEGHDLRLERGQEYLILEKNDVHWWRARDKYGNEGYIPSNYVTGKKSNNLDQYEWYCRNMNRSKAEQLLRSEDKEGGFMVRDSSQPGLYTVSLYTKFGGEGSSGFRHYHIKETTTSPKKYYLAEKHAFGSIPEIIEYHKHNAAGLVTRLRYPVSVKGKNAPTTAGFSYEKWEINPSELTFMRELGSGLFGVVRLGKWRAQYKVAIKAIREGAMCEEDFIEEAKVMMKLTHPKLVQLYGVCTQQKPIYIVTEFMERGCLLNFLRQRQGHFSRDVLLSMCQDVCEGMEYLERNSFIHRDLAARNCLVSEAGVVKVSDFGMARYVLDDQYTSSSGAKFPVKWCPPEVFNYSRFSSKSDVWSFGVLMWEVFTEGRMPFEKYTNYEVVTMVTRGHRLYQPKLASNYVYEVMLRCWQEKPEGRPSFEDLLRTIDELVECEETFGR

[7] = target: Homeodomain-interacting protein kinase 2 (Homo sapiens) (UniProt Q9H2X6); test: Inhibition of human HIPK2 at 1.82 nM by HotSpot assay relative to control
Chain of Homeodomain-interacting protein kinase 2 (Homo sapiens) (Q9H2X6 whole entry, looked up): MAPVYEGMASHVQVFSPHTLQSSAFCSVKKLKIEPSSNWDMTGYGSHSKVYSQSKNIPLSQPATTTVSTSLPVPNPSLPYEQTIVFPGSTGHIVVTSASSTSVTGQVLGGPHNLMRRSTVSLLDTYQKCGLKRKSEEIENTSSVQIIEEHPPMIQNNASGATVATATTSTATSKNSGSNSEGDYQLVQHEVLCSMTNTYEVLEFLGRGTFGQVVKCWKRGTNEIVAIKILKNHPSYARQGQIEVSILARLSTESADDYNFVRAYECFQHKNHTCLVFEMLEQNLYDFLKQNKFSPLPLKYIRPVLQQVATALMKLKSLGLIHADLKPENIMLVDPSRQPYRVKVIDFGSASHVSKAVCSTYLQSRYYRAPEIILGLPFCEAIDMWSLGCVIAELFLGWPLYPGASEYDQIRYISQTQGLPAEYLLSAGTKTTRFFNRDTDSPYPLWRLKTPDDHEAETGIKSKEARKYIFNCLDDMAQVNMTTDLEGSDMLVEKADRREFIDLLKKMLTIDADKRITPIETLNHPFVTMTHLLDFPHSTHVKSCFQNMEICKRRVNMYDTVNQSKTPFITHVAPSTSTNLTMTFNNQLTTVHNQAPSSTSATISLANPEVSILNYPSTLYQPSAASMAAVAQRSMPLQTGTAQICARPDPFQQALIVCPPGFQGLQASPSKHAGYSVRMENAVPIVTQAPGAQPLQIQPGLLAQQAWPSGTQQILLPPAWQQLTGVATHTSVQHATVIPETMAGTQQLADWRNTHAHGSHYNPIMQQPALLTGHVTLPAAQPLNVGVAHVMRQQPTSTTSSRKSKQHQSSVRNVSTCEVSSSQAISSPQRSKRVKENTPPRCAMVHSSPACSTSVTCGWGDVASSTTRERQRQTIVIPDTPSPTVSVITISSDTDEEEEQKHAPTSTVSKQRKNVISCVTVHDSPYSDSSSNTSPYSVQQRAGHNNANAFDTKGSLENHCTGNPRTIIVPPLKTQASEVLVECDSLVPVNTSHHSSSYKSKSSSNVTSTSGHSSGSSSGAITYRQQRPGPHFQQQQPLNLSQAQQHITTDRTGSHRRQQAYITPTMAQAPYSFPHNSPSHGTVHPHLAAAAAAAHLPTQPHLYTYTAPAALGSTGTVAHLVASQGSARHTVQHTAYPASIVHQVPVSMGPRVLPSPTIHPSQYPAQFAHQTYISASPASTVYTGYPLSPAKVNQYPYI

[8] = target: RAF proto-oncogene serine/threonine-protein kinase (Homo sapiens) (UniProt P04049); test: Inhibition of human RAF1 at 18.6 nM by HotSpot assay relative to control
Chain of RAF proto-oncogene serine/threonine-protein kinase (Homo sapiens) (P04049 whole entry): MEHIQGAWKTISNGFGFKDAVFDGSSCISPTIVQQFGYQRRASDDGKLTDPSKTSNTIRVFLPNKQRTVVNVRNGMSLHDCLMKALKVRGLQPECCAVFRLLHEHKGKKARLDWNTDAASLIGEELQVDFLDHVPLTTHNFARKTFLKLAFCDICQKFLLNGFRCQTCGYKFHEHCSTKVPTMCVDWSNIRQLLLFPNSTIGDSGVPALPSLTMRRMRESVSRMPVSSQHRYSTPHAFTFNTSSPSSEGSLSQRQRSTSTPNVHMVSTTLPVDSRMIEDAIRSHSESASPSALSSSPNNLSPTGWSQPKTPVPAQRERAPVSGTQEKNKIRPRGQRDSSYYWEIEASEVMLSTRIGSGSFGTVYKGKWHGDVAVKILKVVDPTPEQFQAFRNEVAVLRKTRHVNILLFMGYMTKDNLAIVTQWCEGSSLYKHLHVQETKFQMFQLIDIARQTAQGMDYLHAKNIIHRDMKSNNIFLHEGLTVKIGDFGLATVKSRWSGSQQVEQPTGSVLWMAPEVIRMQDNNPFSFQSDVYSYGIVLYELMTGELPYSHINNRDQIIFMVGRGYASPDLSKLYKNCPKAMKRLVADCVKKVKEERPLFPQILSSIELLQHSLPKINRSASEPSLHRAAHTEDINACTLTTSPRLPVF

[9] = target: T3, Serine/threonine-protein kinase 3 (Homo sapiens) (UniProt Q13188); test: Inhibition of human STK3 at 18.6 nM by HotSpot assay relative to control
T3 sequence (whole entry): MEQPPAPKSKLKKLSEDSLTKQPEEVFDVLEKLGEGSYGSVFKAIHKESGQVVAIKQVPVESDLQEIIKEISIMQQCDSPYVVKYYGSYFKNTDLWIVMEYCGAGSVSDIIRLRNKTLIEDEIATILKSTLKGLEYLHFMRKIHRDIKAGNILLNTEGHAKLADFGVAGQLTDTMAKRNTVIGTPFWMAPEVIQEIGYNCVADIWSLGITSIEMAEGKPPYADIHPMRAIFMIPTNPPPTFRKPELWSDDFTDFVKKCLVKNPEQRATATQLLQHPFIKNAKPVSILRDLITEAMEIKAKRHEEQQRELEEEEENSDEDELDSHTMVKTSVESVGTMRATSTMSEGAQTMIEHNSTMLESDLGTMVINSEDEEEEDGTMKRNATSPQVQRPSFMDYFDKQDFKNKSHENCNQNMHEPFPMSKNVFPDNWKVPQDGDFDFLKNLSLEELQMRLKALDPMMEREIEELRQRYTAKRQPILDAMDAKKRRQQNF

[10] = target: Tyrosine-protein kinase receptor UFO (Homo sapiens) (UniProt P30530); test: Inhibition of human AXL at 18.6 nM by HotSpot assay relative to control
Chain of Tyrosine-protein kinase receptor UFO (Homo sapiens) (P30530 whole entry): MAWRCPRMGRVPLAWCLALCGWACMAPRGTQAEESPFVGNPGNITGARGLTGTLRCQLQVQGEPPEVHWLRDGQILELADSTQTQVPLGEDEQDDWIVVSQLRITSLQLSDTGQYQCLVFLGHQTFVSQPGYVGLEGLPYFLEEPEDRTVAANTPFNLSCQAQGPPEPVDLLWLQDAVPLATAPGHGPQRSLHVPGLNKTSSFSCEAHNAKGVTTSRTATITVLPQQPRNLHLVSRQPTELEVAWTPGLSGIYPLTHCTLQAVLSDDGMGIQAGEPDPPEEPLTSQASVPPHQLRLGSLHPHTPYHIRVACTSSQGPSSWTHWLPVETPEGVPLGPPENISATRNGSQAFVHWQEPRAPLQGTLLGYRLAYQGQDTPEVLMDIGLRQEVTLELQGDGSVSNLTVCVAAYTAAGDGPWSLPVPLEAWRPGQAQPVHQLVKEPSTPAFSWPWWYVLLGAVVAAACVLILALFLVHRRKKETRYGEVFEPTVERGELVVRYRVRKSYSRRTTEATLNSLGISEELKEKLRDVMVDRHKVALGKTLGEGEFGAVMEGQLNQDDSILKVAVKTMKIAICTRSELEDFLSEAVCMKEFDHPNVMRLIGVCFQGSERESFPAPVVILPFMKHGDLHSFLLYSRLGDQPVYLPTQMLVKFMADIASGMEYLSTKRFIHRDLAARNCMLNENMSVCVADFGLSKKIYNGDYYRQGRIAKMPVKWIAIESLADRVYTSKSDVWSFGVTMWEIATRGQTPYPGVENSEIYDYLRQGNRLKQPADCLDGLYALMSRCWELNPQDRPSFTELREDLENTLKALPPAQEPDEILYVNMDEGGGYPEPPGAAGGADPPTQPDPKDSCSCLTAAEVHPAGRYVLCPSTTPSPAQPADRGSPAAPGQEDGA

Chain of Serine/threonine-protein kinase Nek4 (Homo sapiens) (P51957 whole entry, looked up): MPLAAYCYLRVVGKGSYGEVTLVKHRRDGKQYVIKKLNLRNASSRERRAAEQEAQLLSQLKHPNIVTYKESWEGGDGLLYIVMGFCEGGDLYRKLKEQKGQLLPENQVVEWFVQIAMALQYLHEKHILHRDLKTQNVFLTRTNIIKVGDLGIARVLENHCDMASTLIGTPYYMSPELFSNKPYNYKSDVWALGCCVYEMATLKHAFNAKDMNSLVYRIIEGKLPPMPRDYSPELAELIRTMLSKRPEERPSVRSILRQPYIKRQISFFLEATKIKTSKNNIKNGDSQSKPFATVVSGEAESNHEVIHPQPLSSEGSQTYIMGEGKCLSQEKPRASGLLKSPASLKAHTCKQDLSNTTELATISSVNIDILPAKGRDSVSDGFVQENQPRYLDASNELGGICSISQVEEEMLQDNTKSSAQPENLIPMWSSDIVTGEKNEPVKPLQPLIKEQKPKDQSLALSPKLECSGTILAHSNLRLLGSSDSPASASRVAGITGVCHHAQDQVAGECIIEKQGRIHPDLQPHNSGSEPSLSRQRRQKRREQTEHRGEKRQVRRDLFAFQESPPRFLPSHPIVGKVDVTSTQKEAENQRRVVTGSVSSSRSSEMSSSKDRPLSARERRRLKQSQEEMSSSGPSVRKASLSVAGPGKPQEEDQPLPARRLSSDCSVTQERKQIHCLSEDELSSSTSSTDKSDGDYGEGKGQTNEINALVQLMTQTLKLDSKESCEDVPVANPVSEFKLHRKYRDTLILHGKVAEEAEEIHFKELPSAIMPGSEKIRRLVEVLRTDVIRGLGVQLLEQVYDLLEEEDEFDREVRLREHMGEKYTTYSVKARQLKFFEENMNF
Chain of Calcium/calmodulin-dependent protein kinase type 1 (Homo sapiens) (Q14012 whole entry, looked up): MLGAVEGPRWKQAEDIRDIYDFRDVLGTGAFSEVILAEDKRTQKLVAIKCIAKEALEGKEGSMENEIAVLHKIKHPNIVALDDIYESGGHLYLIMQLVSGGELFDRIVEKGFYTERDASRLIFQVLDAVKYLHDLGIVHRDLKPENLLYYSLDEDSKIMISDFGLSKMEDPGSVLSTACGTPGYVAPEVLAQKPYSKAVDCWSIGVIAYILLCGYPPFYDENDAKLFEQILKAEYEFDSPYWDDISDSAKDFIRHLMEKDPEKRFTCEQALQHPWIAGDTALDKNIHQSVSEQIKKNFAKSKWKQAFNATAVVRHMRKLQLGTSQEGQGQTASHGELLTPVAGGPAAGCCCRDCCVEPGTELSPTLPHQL

| Compound | inhibition [1] [%] | inhibition [2] [%] | inhibition [3] [%] | inhibition [4] [%] | inhibition [5] [%] | inhibition [6] [%] | inhibition [7] [%] | inhibition [8] [%] | inhibition [9] [%] | inhibition [10] [%] |
| --- | --- | --- | --- | --- | --- | --- | --- | --- | --- | --- |
| C[C@@]1(C(=O)Nc2ccc(F)nc2)CCCN1c1nc(Nc2cc(C3CC3)n[nH]2)c2cccn2n1 | 2.2 | -3.35 | 2.74 | -1.71 | -0.21 | -3.36 | 3.96 | – | – | – |
| C[C@]1(O)C[C@@H](c2nc(-c3ccc4ccc(-c5ccccc5)nc4c3)c3c(N)nccn32)C1 | – | – | – | – | – | – | – | -5.79 | -2.45 | 3.94 |
